Source: PMC7413254 (Nature Communications, 2020)

What was measured:
Type in all cases: cell-based
[1] = molecular target: T1, PfCRT^Dd2 (Plasmodium falciparum, UniProt Q9N623, A220S/I356T/K76T/M74I/N326S/N75E/Q271E/R371I); assay: [3H]CQ uptake into Xenopus oocytes, cis-inhibition by unlabelled solute; details: PfCRTDd2 oocytes, background [3H]CQ accumulation subtracted, normalised to oocyte type control
Outline: (§1)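 PfCRT-expressing and control oocytes: ND96 pH 5.5 → 1.5 h at 27.5 °C → ice-cold ND96 wash → 10% SDS lysis → scintillation count.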

[2] = molecular target: T2, PfCRT^Ecu1110 (Plasmodium falciparum, UniProt Q9N623, A220S/I356L/K76T/N326D); assay: as above; details: for PfCRT-mediated [3H]CQ transport, cis-inhibition (% PfCRTEcu1110 control): PfCRTEcu1110 oocytes, background [3H]CQ accumulation subtracted, normalised to oocyte type control; for [3H]CQ transport (% PfCRTEcu1110 control), cis-inhibition, PfCRTEcu1110: PfCRT-mediated component (background subtracted), sheet title says normalised to PfCRTDd2 control, mean ± SEM, SEM
T2 sequence (Q9N623 whole entry A220S/I356L/K76T/N326D): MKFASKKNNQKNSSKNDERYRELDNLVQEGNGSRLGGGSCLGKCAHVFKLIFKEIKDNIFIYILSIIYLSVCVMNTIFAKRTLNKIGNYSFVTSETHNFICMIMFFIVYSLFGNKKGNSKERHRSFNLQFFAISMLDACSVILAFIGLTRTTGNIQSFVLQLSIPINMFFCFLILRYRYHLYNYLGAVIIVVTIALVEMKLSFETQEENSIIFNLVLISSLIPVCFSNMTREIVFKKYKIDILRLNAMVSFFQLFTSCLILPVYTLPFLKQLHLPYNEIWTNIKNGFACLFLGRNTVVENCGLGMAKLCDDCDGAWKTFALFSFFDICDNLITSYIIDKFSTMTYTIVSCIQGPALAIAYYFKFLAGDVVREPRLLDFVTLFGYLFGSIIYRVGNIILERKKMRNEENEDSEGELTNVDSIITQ
Outline: as §1

[3] = molecular target: PfCRT^3D7 (Plasmodium falciparum, UniProt Q8IBZ9); assay: cell-based; details: for PfCRT-mediated [3H]CQ transport, trans-stimulation (% PfCRT3D7 control): PfCRT3D7 oocytes, normalised to oocyte type control
Sequence of PfCRT^3D7 (Q8IBZ9 59-398): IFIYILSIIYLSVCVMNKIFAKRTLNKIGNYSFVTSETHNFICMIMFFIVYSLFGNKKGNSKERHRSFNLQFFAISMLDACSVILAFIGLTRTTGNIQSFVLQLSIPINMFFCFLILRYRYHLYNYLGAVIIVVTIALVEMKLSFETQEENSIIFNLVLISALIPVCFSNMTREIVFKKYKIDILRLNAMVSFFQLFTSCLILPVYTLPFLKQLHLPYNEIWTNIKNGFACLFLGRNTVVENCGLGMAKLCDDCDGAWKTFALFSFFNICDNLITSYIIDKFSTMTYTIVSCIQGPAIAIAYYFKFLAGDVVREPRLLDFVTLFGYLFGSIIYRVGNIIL
Outline: (§2)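 Transport measured in Xenopus oocytes expressing the transporters, 1.5 h at 27.5 °C in ND96 pH 5.5 unless noted. For trans-stimulation, VF-6 injected in 25 nL ND96 at pH 5.0–7.0 or Na^+-free (choline) buffer; intracellular levels based on ~400 nL oocyte volume. Ten oocytes per treatment, ≥4 experiments.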

[4] = molecular target: T1, PfCRT^Dd2; assay: cell-based; details: for PfCRT-mediated [3H]CQ transport, trans-stimulation (% PfCRTDd2 control): PfCRTDd2 oocytes, normalised to oocyte type control; for [3H]CQ transport (% PfCRTDd2 control), trans-stimulation, PfCRTDd2: PfCRT-mediated component (background subtracted), mean ± SEM, SEM
Outline: as §2

[5] = molecular target: T2, PfCRT^Ecu1110; assay: cell-based; details: for PfCRT-mediated [3H]CQ transport, trans-stimulation (% PfCRTEcu1110 control): PfCRTEcu1110 oocytes, normalised to oocyte type control; for [3H]CQ transport (% PfCRTDd2 control), trans-stimulation, PfCRTEcu1110: PfCRT-mediated component (background subtracted), sheet title says normalised to PfCRTDd2 control, mean ± SEM, SEM
Outline: as §2

[6] = [test solute]i = 5 mM (intracellular)
[7] = [test solute]i = 45 mM (intracellular; 30 mM for some solutes due to solubility)
[8] = [test solute]i = 5 mM (injected)
[9] = [test solute]i = 45 mM (30 mM for some solutes due to solubility)

T1 sequence (Q9N623 whole entry A220S/I356T/K76T/M74I/N326S/N75E/Q271E/R371I): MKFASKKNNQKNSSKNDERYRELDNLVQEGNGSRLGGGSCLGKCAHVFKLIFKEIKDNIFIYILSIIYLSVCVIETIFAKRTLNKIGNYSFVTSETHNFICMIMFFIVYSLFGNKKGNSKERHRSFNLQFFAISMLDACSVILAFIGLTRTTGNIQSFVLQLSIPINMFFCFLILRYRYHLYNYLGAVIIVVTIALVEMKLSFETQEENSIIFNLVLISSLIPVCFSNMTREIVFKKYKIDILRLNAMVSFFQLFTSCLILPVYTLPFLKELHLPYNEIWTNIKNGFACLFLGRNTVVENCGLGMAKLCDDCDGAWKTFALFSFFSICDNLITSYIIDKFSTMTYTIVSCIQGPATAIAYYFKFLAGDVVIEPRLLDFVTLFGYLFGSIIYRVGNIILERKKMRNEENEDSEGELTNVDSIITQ

Row | Substance | PfCRT-mediated [3H]CQ transport, cis-inhibition (% PfCRTDd2 control) ([1]; [test solute] = 0.5 mM) | PfCRT-mediated [3H]CQ transport, cis-inhibition (% PfCRTDd2 control) ([1]; [test solute] = 1 mM) | PfCRT-mediated [3H]CQ transport, cis-inhibition (% PfCRTDd2 control) ([1]; [test solute] = 2 mM) | PfCRT-mediated [3H]CQ transport, cis-inhibition (% PfCRTEcu1110 control) ([2]; [test solute] = 1 mM) | PfCRT-mediated [3H]CQ transport, cis-inhibition (% PfCRTEcu1110 control) ([2]; [test solute] = 2 mM) | [3H]CQ transport (% PfCRTEcu1110 control), cis-inhibition, PfCRTEcu1110 ([2]; [test solute] = 0.5 mM) | [3H]CQ transport (% PfCRTEcu1110 control), cis-inhibition, PfCRTEcu1110 ([2]; [test solute] = 1 mM) | [3H]CQ transport (% PfCRTEcu1110 control), cis-inhibition, PfCRTEcu1110 ([2]; [test solute] = 2 mM) | PfCRT-mediated [3H]CQ transport, trans-stimulation (% PfCRT3D7 control) [3, 6] | PfCRT-mediated [3H]CQ transport, trans-stimulation (% PfCRT3D7 control) [3, 7] | PfCRT-mediated [3H]CQ transport, trans-stimulation (% PfCRTDd2 control) [4, 6] | PfCRT-mediated [3H]CQ transport, trans-stimulation (% PfCRTDd2 control) [4, 7] | [3H]CQ transport (% PfCRTDd2 control), trans-stimulation, PfCRTDd2 [4, 8] | [3H]CQ transport (% PfCRTDd2 control), trans-stimulation, PfCRTDd2 [4, 9] | PfCRT-mediated [3H]CQ transport, trans-stimulation (% PfCRTEcu1110 control) [5, 6] | PfCRT-mediated [3H]CQ transport, trans-stimulation (% PfCRTEcu1110 control) [5, 7] | [3H]CQ transport (% PfCRTDd2 control), trans-stimulation, PfCRTEcu1110 [5, 8] | [3H]CQ transport (% PfCRTDd2 control), trans-stimulation, PfCRTEcu1110 [5, 9] | PfCRT-mediated [3H]CQ transport, cis-inhibition (% PfCRTEcu1110 control) ([2]; [test solute] = 0.5 mM) | [3H]CQ transport (% PfCRT3D7 control), trans-stimulation, PfCRT3D7 ([3]; SEM)
1 | KEEAE [KE-5] | 68 ± 3.2 % PfCRTDd2 control | 60 ± 4.9 % PfCRTDd2 control | 50 ± 1.1 % PfCRTDd2 control | 61 ± 1.5 % PfCRTEcu1110 control | 54 ± 2.1 % PfCRTEcu1110 control | 21 ± 0.4 % PfCRTEcu1110 control | 19 ± 0.3 % PfCRTEcu1110 control | 17 ± 0.3 % PfCRTEcu1110 control | 98 ± 3.3 % PfCRT3D7 control | 96 ± 2.1 % PfCRT3D7 control | 97 ± 4.2 % PfCRTDd2 control | 99 ± 3.2 % PfCRTDd2 control | 97 ± 4.2 % PfCRTDd2 control | 99 ± 3.2 % PfCRTDd2 control | 98 ± 3.1 % PfCRTEcu1110 control | 98 ± 1.3 % PfCRTEcu1110 control | 30 ± 1.5 % PfCRTEcu1110 control | 30 ± 1.3 % PfCRTEcu1110 control | – | –
2 | KEFTPPVQA [KA-9] | 48 ± 2.0 % PfCRTDd2 control | 32 ± 2.1 % PfCRTDd2 control | 7 ± 0.1 % PfCRTDd2 control | 41 ± 2.1 % PfCRTEcu1110 control | 30 ± 1.1 % PfCRTEcu1110 control | – | – | – | 130 ± 2.2 % PfCRT3D7 control | 160 ± 3.9 % PfCRT3D7 control | 98 ± 2.2 % PfCRTDd2 control | 98 ± 1.7 % PfCRTDd2 control | – | – | 98 ± 2.8 % PfCRTEcu1110 control | 98 ± 2.0 % PfCRTEcu1110 control | – | – | 48 ± 2.1 % PfCRTEcu1110 control | –
3 | LDNLK [LK-5] | 31 ± 1.4 % PfCRTDd2 control | 21 ± 1.9 % PfCRTDd2 control | 13 ± 0.7 % PfCRTDd2 control | 30 ± 1.9 % PfCRTEcu1110 control | 21 ± 1.9 % PfCRTEcu1110 control | 13 ± 0.1 % PfCRTEcu1110 control | 9.0 ± 0.03 % PfCRTEcu1110 control | 7.0 ± 0.03 % PfCRTEcu1110 control | 127 ± 4.2 % PfCRT3D7 control | 180 ± 7.2 % PfCRT3D7 control | 100 ± 1.3 % PfCRTDd2 control | 94 ± 3.2 % PfCRTDd2 control | 100 ± 1.3 % PfCRTDd2 control | 94 ± 3.2 % PfCRTDd2 control | 97 ± 4.2 % PfCRTEcu1110 control | 136 ± 5.1 % PfCRTEcu1110 control | 29 ± 1.4 % PfCRTEcu1110 control | 41 ± 2.1 % PfCRTEcu1110 control | 40 ± 1.4 % PfCRTEcu1110 control | –
4 | LHVDPENF [LF-8] | 37 ± 2.0 % PfCRTDd2 control | 21 ± 0.5 % PfCRTDd2 control | 11 ± 0.2 % PfCRTDd2 control | 22 ± 2.0 % PfCRTEcu1110 control | 11 ± 0.1 % PfCRTEcu1110 control | – | – | – | 97 ± 2.2 % PfCRT3D7 control | 98 ± 4.2 % PfCRT3D7 control | 99 ± 3.1 % PfCRTDd2 control | 98 ± 2.3 % PfCRTDd2 control | – | – | 96 ± 2.1 % PfCRTEcu1110 control | 95 ± 3.2 % PfCRTEcu1110 control | – | – | 31 ± 1.1 % PfCRTEcu1110 control | –
5 | LSDLHAHK [LK-8] | 55 ± 2.3 % PfCRTDd2 control | 51 ± 0.1 % PfCRTDd2 control | 25 ± 0.3 % PfCRTDd2 control | 48 ± 2.2 % PfCRTEcu1110 control | 39 ± 2.4 % PfCRTEcu1110 control | – | – | – | 98 ± 3.4 % PfCRT3D7 control | 96 ± 1.3 % PfCRT3D7 control | 98 ± 3.3 % PfCRTDd2 control | 97 ± 3.1 % PfCRTDd2 control | – | – | 97 ± 1.4 % PfCRTEcu1110 control | 98 ± 3.4 % PfCRTEcu1110 control | – | – | 62 ± 3.1 % PfCRTEcu1110 control | –
6 | LSFPTTK [LK-7] | 48 ± 2.6 % PfCRTDd2 control | 37 ± 1.7 % PfCRTDd2 control | 18 ± 0.7 % PfCRTDd2 control | 33 ± 2.4 % PfCRTEcu1110 control | 17 ± 0.4 % PfCRTEcu1110 control | 15 ± 0.1 % PfCRTEcu1110 control | 10 ± 0.4 % PfCRTEcu1110 control | 5.0 ± 0.05 % PfCRTEcu1110 control | 93 ± 3.2 % PfCRT3D7 control | 94 ± 3.6 % PfCRT3D7 control | 98 ± 4.3 % PfCRTDd2 control | 95 ± 3.3 % PfCRTDd2 control | 98 ± 4.3 % PfCRTDd2 control | 95 ± 3.3 % PfCRTDd2 control | 97 ± 3.3 % PfCRTEcu1110 control | 93 ± 3.7 % PfCRTEcu1110 control | 29 ± 1.6 % PfCRTEcu1110 control | 29 ± 1.8 % PfCRTEcu1110 control | 47 ± 1.1 % PfCRTEcu1110 control | 0.1 ± 0.01
